Assay results as given in patent publication US10858360B2, “Tricyclic gyrase inhibitors” (priority 2011, dated 2020).
Converted amounts (≈) assume the structure as drawn. Where two headings read alike, the source gives them in different places.

Tests used:
E. coli ATCC 25922 = assay: MIC, E. coli ATCC 25922; type: cell-based; settings: for MIC: Escherichia coli, ATCC25922, E. coli
S. aureus ATCC 13709 = assay: MIC, S. aureus ATCC 13709 (Alamar Blue broth microdilution); type: cell-based; settings: for MIC: Staphylococcus aureus, ATCC13709, S. aureus
[1] = E. coli, Alamar Blue read after overnight incubation at 35° C.
[2] = S. aureus, Alamar Blue read after overnight incubation at 35° C.
[3] = Alamar Blue read after overnight incubation at 35° C.

Row | SMILES | MIC (E. coli ATCC 25922; [3]) [µg/mL] | MIC (S. aureus ATCC 13709; [3]) [µg/mL] | further results
1 | CNc1cc(F)cc2c1[nH]c1nc(Oc3cnc4c(c3)ncn4C3CC3)nc(N3CC(N)C3)c12 [4.364] |  |  | MIC Ec (E. coli ATCC 25922; [1]): 4 µg/mL (≈ 8.71 µM); MIC Sa (S. aureus ATCC 13709; [2]): ≤0.5 µg/mL
2 | CNc1cc(F)cc2c1[nH]c1nc(Oc3cncc(-c4nnnn4C)c3)nc(N3CC4C(N)C4C3)c12 (stereo not shown) [4.168] | 2 (≈ 4.1 µM) | ≤ 0.5 | 
3 | CNc1cc(F)cc2c1[nH]c1nc(Oc3cnc(C)nc3)nc(N3CC4CONC4C3)c12 (stereo not shown) [4.122] |  |  | MIC Ec (E. coli ATCC 25922; [1]): 1 µg/mL (≈ 2.29 µM); MIC Sa (S. aureus ATCC 13709; [2]): ≤0.5 µg/mL
4 | CNc1cc(Cl)cc2c1[nH]c1nc(Oc3cnc(N)nc3)nc(N3CCC4(CC4N)C3)c12 (stereo not shown) [6.15] |  |  | MIC Ec (E. coli ATCC 25922): ≤0.5 µg/mL; MIC Sa (S. aureus ATCC 13709): ≤0.5 µg/mL
5 | CNc1cc(F)cc2c1[nH]c1nc(Oc3cnc(N)nc3)nc(N3CC4C(N)C4C3)c12 (stereo not shown) [4.172] | ≤ 0.5 | ≤ 0.5 | 
6 | CNc1cc(F)cc2c1[nH]c1nc(Oc3cncnc3)nc(N3C[C@H]4C[C@@H]3C[C@H]4N)c12 [4.034] | ≤ 0.5 | ≤ 0.5 | 
7 | CNc1cccc2c1[nH]c1nc(Sc3cnc4cccnc4c3)nc(N3CC4C(N)C4C3)c12 (stereo not shown) [1.12] | 1 (≈ 2.2 µM) | ≤ 0.5 | 
8 | CNc1cc(F)cc2c1[nH]c1nc(Oc3cnc(N4CCCC4=O)nc3)nc(N3CC4C(N)C4C3)c12 (stereo not shown) [4.345] | 2 (≈ 4.09 µM) | ≤ 0.5 | 
9 | CNc1cc(F)cc2c1[nH]c1nc(Oc3cncnc3)nc(N3C[C@H]4CCN[C@H]4C3)c12 [4.020] | ≤ 0.5 | ≤ 0.5 | 
10 | CNc1cc(F)cc2c1[nH]c1nc(Oc3cnc(C(C)C)nc3)nc(N3C[C@H](N)C4(CC4)C3)c12 [4.233] | 1 (≈ 2.16 µM) | ≤ 0.5 | 
11 | CNc1cc(F)cc2c1[nH]c1nc(Oc3ccc4c(c3)C(=O)NCC4)nc(N3CC4C(N)C4C3)c12 (stereo not shown) [4.301] |  |  | MIC Ec (E. coli ATCC 25922; [1]): 1 µg/mL (≈ 2.11 µM); MIC Sa (S. aureus ATCC 13709; [2]): ≤0.5 µg/mL
12 | CNc1cc(F)cc2c1[nH]c1nc(Oc3cnc(N(C)C)nc3)nc(N3CCC(N)C3)c12 (stereo not shown) [4.207] |  |  | MIC Ec (E. coli ATCC 25922; [1]): ≤0.5 µg/mL; MIC Sa (S. aureus ATCC 13709; [2]): ≤0.5 µg/mL
13 | CNc1cc(F)cc2c1[nH]c1nc(Oc3cnc(CC(=O)N(C)OC)nc3)nc(N3C[C@H](N)C4(CC4)C3)c12 [4.370] | 1 (≈ 1.92 µM) | ≤ 0.5 | 
14 | CNc1cc(F)cc2c1[nH]c1nc(Oc3cnc(C)nc3)nc(N3CC(N)C3)c12 [4.138] |  |  | MIC Ec (E. coli ATCC 25922; [1]): ≤0.5 µg/mL; MIC Sa (S. aureus ATCC 13709; [2]): ≤0.5 µg/mL
15 | CNc1ncc(Oc2nc(N3CC4C(N)C4C3)c3c(n2)[nH]c2c(NC)cc(F)cc23)cn1 (stereo not shown) [4.218] | ≤ 0.5 | ≤ 0.5 | 
16 | CNc1cccc2c1[nH]c1nc(Oc3cncc(F)c3)nc(N3CC4C(N)C4C3)c12 (stereo not shown) [3.33] | 1 (≈ 2.47 µM) | ≤ 0.5 | 

Row | SMILES | MIC (E. coli ATCC 25922; [3]) [µg/mL] | MIC (S. aureus ATCC 13709; [3]) [µg/mL] | further results
17 | CNc1cccc2c1[nH]c1nc(Sc3cnc4nccnc4c3)nc(N3CC[C@H](N)C3)c12 [1.15] | 2 (≈ 4.51 µM) | 1 (≈ 2.25 µM) | 
18 | CCc1ncc(Oc2nc(N3C[C@H](N)C4(CC4)C3)c3c(n2)[nH]c2c(NC)cc(F)cc23)cn1 [4.259] | ≤ 0.5 | ≤ 0.5 | 
19 | CNc1cccc2c1[nH]c1nc(Sc3cncc(S(=O)(=O)NCCO)c3)nc(N3CC4C(N)C4C3)c12 (stereo not shown) [1.42] | 32 (≈ 60.8 µM) | 8 (≈ 15.2 µM) | 
20 | CNc1cc(F)cc2c1[nH]c1nc(Oc3cncc(SC)c3)nc(N3CC4C[C@@H](N)C4C3)c12 (stereo partly shown) [4.355] | ≤ 0.5 | ≤ 0.5 | 
21 | CNc1ncnc2c1[nH]c1nc(Oc3cnc(C)nc3)nc(N3CC(N)C4(CC4)C3)c12 (stereo not shown) [7.08] | > 64 | 16 (≈ 38.2 µM) | 
22 | CNc1cc(F)cc2c1[nH]c1nc(Oc3cnc(C)nc3)nc(N3CCCC4(CC4N)C3)c12 (stereo not shown) [4.101] |  |  | MIC Ec (E. coli ATCC 25922; [1]): ≤0.5 µg/mL; MIC Sa (S. aureus ATCC 13709; [2]): ≤0.5 µg/mL
23 | CNc1cc(F)cc2c1[nH]c1nc(Oc3cnc(N)nc3)nc(N3CC4CCC(N)C4C3)c12 (stereo not shown) [4.189] | 2 (≈ 4.45 µM) | ≤ 0.5 | 
24 | CNc1cccc2c1[nH]c1nc(Oc3cncc(OC)c3)nc(N3CC4C(N)C4C3)c12 (stereo not shown) [3.35] | 1 (≈ 2.4 µM) | ≤ 0.5 | 
25 | CNc1cc(F)cc2c1[nH]c1nc(Oc3cnc(NCC4CCCO4)nc3)nc(N3C[C@H](N)C4(CC4)C3)c12 (stereo partly shown) [4.406] | 1 (≈ 1.92 µM) | ≤ 0.5 | 
26 | CNc1cc(F)cc2c1[nH]c1nc(Oc3cnc4c(c3)C(=O)N(C)C4C)nc(N3CC4CC(N)C4C3)c12 (stereo not shown) [4.397] |  |  | MIC Ec (E. coli ATCC 25922; [1]): ≤0.5 µg/mL; MIC Sa (S. aureus ATCC 13709; [2]): ≤0.5 µg/mL
27 | CNc1cccc2c1[nH]c1nc(Oc3cnc(C)nc3)nc(N3CC[C@@H](NCCC#N)C3)c12 [3.10] | > 64 | 32 (≈ 72.2 µM) | 
28 | CNc1cc(F)cc2c1[nH]c1nc(Oc3cnc(C)nc3)nc(N3CCC(N)C(C)(C)C3)c12 (stereo not shown) [4.152] | 1 (≈ 2.22 µM) | ≤ 0.5 | 
29 | CNc1cc(F)cc2c1[nH]c1nc(Oc3cnc(C)nc3)nc(N3CC(N)C(C(=O)NCC(C)O)C3)c12 (stereo not shown) [4.439] | > 16 | 8 (≈ 15.7 µM) | 
30 | CNc1cc(F)cc2c1[nH]c1nc(Oc3cnc(C)nc3)nc(N3CC(NCCN)C4(CC4)C3)c12 (stereo not shown) [4.090] |  |  | MIC Ec (E. coli ATCC 25922; [1]): 4 µg/mL (≈ 8.38 µM); MIC Sa (S. aureus ATCC 13709; [2]): ≤0.5 µg/mL
31 | CNc1cc(F)cc2c1[nH]c1nc(Oc3cncc(C(N)=O)c3)nc(N3CC(N)C4(CC4)C3)c12 (stereo not shown) [4.238] |  |  | MIC Ec (E. coli ATCC 25922; [1]): >16 µg/mL; MIC Sa (S. aureus ATCC 13709; [2]): 2 µg/mL (≈ 4.32 µM)
32 | CNc1cc(F)cc2c1[nH]c1nc(Oc3cncc(C)c3)nc(N3CC4CC(N)C4C3)c12 (stereo not shown) [4.303] | ≤ 0.5 | ≤ 0.5 | 
